Measurements published in ChEMBL document CHEMBL3431459, “Roche carnitine palmitoyltransferase modulator screening data (supplementary data associated with the publication CHEMBL2216752)”.
Values after ≈ are worked out from the molar mass of the structure shown.

Tests used:
[1] = target: T1, Carnitine O-palmitoyltransferase 1, muscle isoform (Homo sapiens, UniProt Q92523); assay: SUPPLEMENTARY: Inhibition of Carnitine palmitoyltransferase 1, muscle isoform; set-up: species or system Muscle tissue
T1 sequence (Q92523 whole entry): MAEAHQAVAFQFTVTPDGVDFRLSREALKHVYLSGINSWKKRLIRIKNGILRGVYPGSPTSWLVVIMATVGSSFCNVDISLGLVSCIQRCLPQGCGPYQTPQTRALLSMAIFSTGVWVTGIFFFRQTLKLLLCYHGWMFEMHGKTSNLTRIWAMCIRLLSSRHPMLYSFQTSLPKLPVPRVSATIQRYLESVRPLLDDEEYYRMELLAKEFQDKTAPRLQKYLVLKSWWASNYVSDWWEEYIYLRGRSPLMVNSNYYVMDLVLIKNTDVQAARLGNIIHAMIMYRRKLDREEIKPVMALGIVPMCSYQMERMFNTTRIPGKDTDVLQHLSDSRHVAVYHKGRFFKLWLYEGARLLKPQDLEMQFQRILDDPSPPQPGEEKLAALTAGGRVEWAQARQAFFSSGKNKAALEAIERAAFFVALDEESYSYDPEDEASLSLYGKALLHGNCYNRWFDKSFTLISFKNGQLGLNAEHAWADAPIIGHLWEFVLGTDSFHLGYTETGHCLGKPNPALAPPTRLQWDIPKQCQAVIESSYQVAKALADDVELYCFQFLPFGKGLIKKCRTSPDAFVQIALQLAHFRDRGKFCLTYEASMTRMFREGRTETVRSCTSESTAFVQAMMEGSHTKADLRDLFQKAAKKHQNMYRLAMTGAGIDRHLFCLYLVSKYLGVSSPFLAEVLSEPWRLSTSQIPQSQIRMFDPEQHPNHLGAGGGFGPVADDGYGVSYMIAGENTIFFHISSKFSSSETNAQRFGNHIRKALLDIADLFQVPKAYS

[2] = target: T2, Carnitine O-palmitoyltransferase 2, mitochondrial (Homo sapiens, UniProt P23786); assay: (§1) SUPPLEMENTARY: Inhibition of Carnitine palmitoyltransferase 2
T2 sequence (P23786 whole entry): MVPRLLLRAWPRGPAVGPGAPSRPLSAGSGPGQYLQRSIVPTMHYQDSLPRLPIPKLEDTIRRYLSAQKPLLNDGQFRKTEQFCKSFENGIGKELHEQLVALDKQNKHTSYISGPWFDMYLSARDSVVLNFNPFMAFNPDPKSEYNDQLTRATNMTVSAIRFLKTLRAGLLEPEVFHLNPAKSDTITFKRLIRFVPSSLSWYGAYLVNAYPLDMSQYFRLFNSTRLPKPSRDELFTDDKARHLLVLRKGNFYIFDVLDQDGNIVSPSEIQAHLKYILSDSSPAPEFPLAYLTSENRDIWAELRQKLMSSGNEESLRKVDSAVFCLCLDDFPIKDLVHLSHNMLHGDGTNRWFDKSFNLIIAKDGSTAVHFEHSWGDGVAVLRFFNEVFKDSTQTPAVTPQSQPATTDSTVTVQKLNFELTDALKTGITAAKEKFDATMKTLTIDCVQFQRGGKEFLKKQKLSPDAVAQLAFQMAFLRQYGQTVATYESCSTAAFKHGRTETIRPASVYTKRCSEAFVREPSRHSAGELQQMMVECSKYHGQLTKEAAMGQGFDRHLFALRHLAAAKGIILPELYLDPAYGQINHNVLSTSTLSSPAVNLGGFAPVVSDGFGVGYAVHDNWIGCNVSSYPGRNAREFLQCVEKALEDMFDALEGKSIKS

[3] = target: T3, Carnitine O-palmitoyltransferase 2, mitochondrial (Rattus norvegicus, UniProt P18886); assay: as §1
T3 sequence (P18886 whole entry): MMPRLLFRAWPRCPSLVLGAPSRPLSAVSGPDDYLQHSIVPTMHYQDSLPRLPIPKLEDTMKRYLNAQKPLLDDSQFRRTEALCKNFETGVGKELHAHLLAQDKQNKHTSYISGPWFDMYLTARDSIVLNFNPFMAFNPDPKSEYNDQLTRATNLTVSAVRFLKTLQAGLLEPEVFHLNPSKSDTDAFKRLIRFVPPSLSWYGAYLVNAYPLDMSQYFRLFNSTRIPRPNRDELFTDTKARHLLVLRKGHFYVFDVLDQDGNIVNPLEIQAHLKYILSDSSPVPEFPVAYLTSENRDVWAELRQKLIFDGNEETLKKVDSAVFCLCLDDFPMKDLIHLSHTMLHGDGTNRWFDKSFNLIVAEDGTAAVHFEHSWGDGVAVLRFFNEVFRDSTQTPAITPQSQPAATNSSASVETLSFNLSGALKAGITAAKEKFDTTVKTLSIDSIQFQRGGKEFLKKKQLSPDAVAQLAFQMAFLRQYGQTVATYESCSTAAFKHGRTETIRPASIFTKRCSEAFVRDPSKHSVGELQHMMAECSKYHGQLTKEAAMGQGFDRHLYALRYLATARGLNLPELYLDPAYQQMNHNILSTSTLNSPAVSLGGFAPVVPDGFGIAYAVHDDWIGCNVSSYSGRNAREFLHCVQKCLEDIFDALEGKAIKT

[4] = target: T4, Carnitine O-palmitoyltransferase 1, liver isoform (Homo sapiens, UniProt P50416); assay: (§2) SUPPLEMENTARY: Inhibition of Carnitine palmitoyltransferase 1, liver isoform
T4 sequence (P50416 whole entry): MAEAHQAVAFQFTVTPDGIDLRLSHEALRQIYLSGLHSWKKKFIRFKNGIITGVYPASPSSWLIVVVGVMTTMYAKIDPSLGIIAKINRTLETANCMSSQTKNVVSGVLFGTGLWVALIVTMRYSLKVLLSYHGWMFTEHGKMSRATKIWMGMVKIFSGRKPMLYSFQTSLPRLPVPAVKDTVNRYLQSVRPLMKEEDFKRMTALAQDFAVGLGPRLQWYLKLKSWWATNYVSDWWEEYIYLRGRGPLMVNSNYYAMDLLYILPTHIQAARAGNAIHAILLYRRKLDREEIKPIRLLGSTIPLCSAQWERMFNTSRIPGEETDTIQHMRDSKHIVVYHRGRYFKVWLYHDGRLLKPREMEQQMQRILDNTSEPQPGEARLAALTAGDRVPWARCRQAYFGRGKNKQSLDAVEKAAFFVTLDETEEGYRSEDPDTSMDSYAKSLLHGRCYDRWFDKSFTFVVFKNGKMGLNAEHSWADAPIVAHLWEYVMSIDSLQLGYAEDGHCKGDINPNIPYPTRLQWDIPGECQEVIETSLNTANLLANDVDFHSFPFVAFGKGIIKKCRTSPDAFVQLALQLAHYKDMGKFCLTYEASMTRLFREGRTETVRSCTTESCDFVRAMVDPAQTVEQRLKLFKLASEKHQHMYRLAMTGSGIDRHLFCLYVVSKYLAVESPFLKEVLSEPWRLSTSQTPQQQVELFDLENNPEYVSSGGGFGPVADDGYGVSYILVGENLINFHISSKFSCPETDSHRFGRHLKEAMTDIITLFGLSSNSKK

[5] = SUPPLEMENTARY: Lyophilisation Solubility Assay (LYSA); format: physicochemical; conditions: read-out: Kinetic_solubility
[6] = SUPPLEMENTARY: Lipophilicity (log D) Determination by high-throughput shake-flask; format: physicochemical; conditions: octanol/water
[7] = SUPPLEMENTARY: PAMPA permeability assay; format: physicochemical; conditions: read-out: Permeability
[8] = target: T5, Carnitine O-palmitoyltransferase 1, liver isoform (Rattus norvegicus, UniProt P32198); assay: as §2
T5 sequence (P32198 whole entry): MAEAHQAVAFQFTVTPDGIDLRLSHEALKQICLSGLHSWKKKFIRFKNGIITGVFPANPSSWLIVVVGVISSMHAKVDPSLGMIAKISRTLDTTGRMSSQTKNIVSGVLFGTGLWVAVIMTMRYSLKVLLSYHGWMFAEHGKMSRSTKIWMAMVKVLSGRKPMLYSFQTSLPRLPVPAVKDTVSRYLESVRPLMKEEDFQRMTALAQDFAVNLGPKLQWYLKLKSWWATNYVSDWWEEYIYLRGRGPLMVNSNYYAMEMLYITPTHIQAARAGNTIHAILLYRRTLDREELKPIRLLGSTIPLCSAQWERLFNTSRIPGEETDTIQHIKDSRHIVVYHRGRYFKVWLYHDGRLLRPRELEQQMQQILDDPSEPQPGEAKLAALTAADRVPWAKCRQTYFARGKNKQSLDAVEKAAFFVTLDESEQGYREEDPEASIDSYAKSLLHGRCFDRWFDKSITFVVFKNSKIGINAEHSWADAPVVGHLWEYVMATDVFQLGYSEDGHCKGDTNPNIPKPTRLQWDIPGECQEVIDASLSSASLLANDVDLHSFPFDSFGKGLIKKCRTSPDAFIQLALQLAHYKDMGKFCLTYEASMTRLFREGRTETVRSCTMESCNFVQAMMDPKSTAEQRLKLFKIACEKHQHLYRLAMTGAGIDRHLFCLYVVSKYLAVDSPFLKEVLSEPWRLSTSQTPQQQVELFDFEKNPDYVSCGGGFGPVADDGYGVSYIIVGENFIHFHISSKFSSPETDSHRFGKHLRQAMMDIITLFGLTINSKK

Row | Compound | IC50 [1] | IC50 [2] | IC50 [3] | IC50 [4] | solubility kinetic [5] | logD [6] | Papp [7] | IC50 [8]
1 | COc1ccc2[nH]cc(C(=O)COc3ccncc3)c2c1 | > 100 µM | > 100 µM | > 100 µM | 658 nM | 88 µg/mL (≈ 312 µM) | 0.42 | 0.02 ×10⁻⁶ cm/s | –
2 | O=C(COc1ccccc1)N1CCCC[C@@H]1c1nc(-c2cccc(-c3n[nH]c(=O)o3)c2)n[nH]1 | > 100 µM | 34 µM | – | 115 nM | 24 µg/mL (≈ 53.8 µM) | 2.42 | 1.7 ×10⁻⁶ cm/s | 367 nM
3 | O=C(COc1ccccc1)N1CCCC[C@@H]1c1nc(-c2cccc(-c3nnco3)c2)n[nH]1 | 0.748 µM | 86.1 µM | – | 80 nM | 26 µg/mL (≈ 60.4 µM) | 2.66 | 3.05 ×10⁻⁶ cm/s | 388 nM
4 | O=C(COc1ccccc1)N1CCCC[C@@H]1c1nc(-c2cccc(B(O)O)c2)no1 | 30.6 µM | 15.6 µM | – | 67.2 nM | 11 µg/mL (≈ 27 µM) | 2.16 | 4.15 ×10⁻⁶ cm/s | 205 nM
5 | O=C(O)c1ccc(NC(=O)c2ccc3c(c2)N(S(=O)(=O)c2cccc(Cl)c2)CCO3)cc1 | > 100 µM | 94.7 µM | – | 66.4 nM | 2 µg/mL (≈ 4.23 µM) | 2.92 | 3.01 ×10⁻⁶ cm/s | 89.8 nM
6 | O=C(O)COc1cccc(-c2noc([C@H]3CCCCN3C(=O)COc3ccccc3)n2)c1 | 45.9 µM | 19.8 µM | – | 196 nM | > 547 µg/mL | -0.64 | 0.37 ×10⁻⁶ cm/s | 594 nM

Second part, the compound after the results:

Row | IC50 [1] | IC50 [2] | IC50 [3] | IC50 [4] | solubility kinetic [5] | logD [6] | Papp [7] | IC50 [8] | Compound
7 | > 100 µM | 23.5 µM | – | 264 nM | 87 µg/mL (≈ 207 µM) | 1.65 | 2.02 ×10⁻⁶ cm/s | 1630 nM | NNC(=O)c1cccc(-c2n[nH]c([C@H]3CCCCN3C(=O)COc3ccccc3)n2)c1
8 | > 100 µM | > 100 µM | – | 164 nM | 132 µg/mL (≈ 309 µM) | 2.19 | 3.4 ×10⁻⁶ cm/s | 244 nM | COc1ccc(-c2noc(C3C[S+]([O-])CCN3C(=O)COc3ccccc3)n2)cc1 (centres undefined)
9 | 3.01 µM | 12 µM | – | 370 nM | 36 µg/mL (≈ 65.5 µM) | 0.66 | 2.54 ×10⁻⁶ cm/s | 188 nM | COc1ccc(Cl)cc1S(=O)(=O)N1CCCCc2ccc(C(=O)Nc3ccc(C(=O)O)c(Cl)c3)cc21
10 | > 100 µM | 88.5 µM | – | 203 nM | 362 µg/mL (≈ 859 µM) | 2.09 | 3.8 ×10⁻⁶ cm/s | 422 nM | CNC(=O)c1cncc(-c2noc([C@H]3CCCCN3C(=O)COc3ccccc3)n2)c1
11 | > 100 µM | 9.18 µM | – | 217 nM | 431 µg/mL (≈ 930 µM) | 2.5 | 5.44 ×10⁻⁶ cm/s | 354 nM | CCN(CC)C(=O)c1cncc(-c2noc([C@H]3CCCCN3C(=O)COc3ccccc3)n2)c1
12 | > 100 µM | 7.35 µM | – | 165 nM | > 559 µg/mL | 1.83 | 4.13 ×10⁻⁶ cm/s | 469 nM | COCCN(C)C(=O)c1cncc(-c2noc([C@H]3CCCCN3C(=O)COc3ccccc3)n2)c1
